Experiments:
Format in all cases: in vivo, rat
PDD rats [1] = assay: T-maze test (working memory) in MPTP-induced PDD rats; conditions: test on 10th day, vs chance (50%)
Method: (§1) Wistar male rats (12 week-old, weight ˜400 grams) purchased from the National Laboratory Animal Center (R.O.C.) are used. The rats are housed in an animal room with constant temperature of 24±1° C., where is kept on a 12-hours light and 12-hours dark cycle. The rats are housed and kept on free diet and water.
(§2) On the 1st day, the rats are anesthetized, followed by bilaterally MPTP (1-methyl-4-phenyl-1,2,3,6-tetrahydropyridine hydrochloride)-infusion into the substantia nigra pars compacta (SNc). The rats with cognitive impairments on working memory and object recognition are used as the PDD rats (Ho et al., Behav Brain Res 268: 177-184, 2014).
Starting on the 1st day, referring to TABLE 1, saline (group Al), erythropoietin (groups A2 & A3) and ceftriaxone (groups A4 & A5) are administrated to the PDD rats in the corresponding groups. Erythropoietin and ceftriaxone are sequentially administrated to the PDD rats of group A6 with a time interval of 30 minutes. […]
Working memory of the rats of groups A0-A6 is assessed using the T-maze test (Ho et al., Behav Brain Res 268: 177-184, 2014). […]
On the 10th day, a test session consisting 3 rounds, each of which is composed of a “forced run” and two “choice run”, is carried out. The number of the rewards “R” that the rat under test “M” get (% of correct response) in the 6 choice runs is recorded.

[2] = system: DAergic neuron in the SNc; assay: Histopathological analysis: tyrosine hydroxylase staining of SNc sections; conditions: 14th day, vs group A1 (saline)
Method: as §1, §2
(§3) Starting on the 1st day, referring to TABLE 1, saline (group Al), erythropoietin (groups A2 & A3) and ceftriaxone (groups A4 & A5) are administrated to the PDD rats in the corresponding groups. Erythropoietin and ceftriaxone are sequentially administrated to the PDD rats of group A6 with a time interval of 30 minutes. Saline is also used to be administrated to the normal rats of group A0. Moreover, saline, erythropoietin and ceftriaxone are administrated for 14 days (from the 1st day to the 14th day).
(§4) On the 14th day, the rats of groups A0-A6 are sacrificed and the coronal sections are collected. The sections with SNc are used for tyrosine hydroxylase staining, while the sections with hippocampal CA1 area are used for Nissl staining. […]

[3] = system: pyramidal neuron in the hippocampal CA1 area; assay: Histopathological analysis: Nissl staining of hippocampal CA1 sections; conditions: 14th day, vs group A1 (saline), p<0.001
Method: as §1, §2, §3, §4

PDD rats [4] = assay: Object recognition test in MPTP-induced PDD rats; conditions: 13th day
Method: as §1, §2
Starting on the 1st day, referring to TABLE 1, saline (group Al), erythropoietin (groups A2 & A3) and ceftriaxone (groups A4 & A5) are administrated to the PDD rats in the corresponding groups. […]
Recognition ability of the rats of groups A0-A6 is measured using the object recognition test (Ho et al., Behav Brain Res 268: 177-184, 2014). […]
On the 13th day, the rat under test “M” is first placed in the open box shown as FIG. 4a, and the time spent exploring the object O1 (TO1) and the total time spent exploring the objects O1, O2 & O3 (TO1+O2+O3) are recorded, respectively. The percentage of the exploration time spent on the object O1 is calculated as (TO1/TO1+O2+O3)*100%. […]

[5] = group A4, ceftriaxone 5 mg/kg/day, p<0.05

Structure (SMILES): CO/N=C(\C(=O)N[C@@H]1C(=O)N2C(C(=O)O)=C(CSc3nc(=O)c(=O)[nH]n3C)CS[C@H]12)c1csc(N)n1 [ceftriaxone]
- percentage of correct response in T-maze test (working memory) (PDD rats [1]; [5]): slightly treatment on the cognitive impairment on working memory
- percentage of correct response in T-maze test (working memory) (PDD rats [1]; group A5, ceftriaxone 10 mg/kg/day, p<0.001): significant treatment on the cognitive impairment on working memory
- density of DAergic neuron in the SNc [2, 5]: recovery of DAergic neuron density in the SNc
- density of DAergic neuron in the SNc ([2]; group A5, ceftriaxone 10 mg/kg/day, p<0.01): recovery of DAergic neuron density in the SNc
- percentage of the CA1 area occupied by the pyramidal neuron ([3]; group A4, ceftriaxone 5 mg/kg/day): recovery of pyramidal neuron density in the CA1 area
- percentage of the CA1 area occupied by the pyramidal neuron ([3]; group A5, ceftriaxone 10 mg/kg/day): recovery of pyramidal neuron density in the CA1 area
- percentage of time exploring novel object O4 vs object O1 (recognition ability) (PDD rats [4]; group A4, ceftriaxone 5 mg/kg/day, p<0.001): can recognize the novel object O4 in the environment
- percentage of time exploring novel object O4 vs object O1 (recognition ability) (PDD rats [4]; group A5, ceftriaxone 10 mg/kg/day, p<0.05): can recognize the novel object O4 in the environment
